Here are results for 34 molecules from BindingDB's records for doi:10.1021/jm00039a015 (Abbott Laboratories, 1994).

What is called Ki is a measure of affinity in units of concentration, obtained from inhibition or displacement.

Counter-ions that a name gives are not always drawn.

This experiment addresses Platelet-activating factor receptor (Oryctolagus cuniculus). Briefly: Antagonist activity against platelet activating factor (PAF) receptor in rabbit platelet membranes using [3H]C18-PAF as radioligand.
In the case of `O=CN1C(c2cccnc2)SC[C@H]1C(=O)c1c[nH]c2ccccc12` (stereo partly drawn) [(R)-4-(1H-Indole-3-carbonyl)-2-pyridin-3-yl-thiazolidine-3-carbaldehyde], the affinity corresponds to a Ki of 220 nM.
In the case of `O=C(C1CSC(c2cccnc2)N1)n1ccc2c(Cl)cccc21` (centres undefined) [(4-Chloro-indol-1-yl)-(2-pyridin-3-yl-thiazolidin-4-yl)-methanone] it was 33 nM; in that of `CC(C)(C)OC(=O)n1cc(C(=O)[C@@H]2CSC(c3cccnc3)N2)c2ccccc21` (stereo partly drawn) [3-((R)-2-Pyridin-3-yl-thiazolidine-4-carbonyl)-indole-1-carboxylic acid tert-butyl ester], 1 nM; in that of `O=C(O)Cn1cc(C(=O)[C@@H]2CSC(c3cccnc3)N2)c2ccccc21` (some centres undefined) [[3-(2-Pyridin-3-yl-thiazolidine-4-carbonyl)-indol-1-yl]-acetic acid], 30 nM.
The result for `O=C(Nc1cccc(Cl)c1)c1ccn2c1CSC2c1cccnc1` (centres undefined) [RP-52770] reads 274 nM; that for `CCN(CC)C(=O)n1cc(C(=O)[C@@H]2CSC(c3cccnc3)N2)c2ccccc21` (stereo partly drawn) [3-((R)-2-Pyridin-3-yl-thiazolidine-4-carbonyl)-indole-1-carboxylic acid diethylamide], 1.4 nM; that for `CCOC(=O)Cn1cc(C(=O)[C@@H]2CSC(c3cccnc3)N2)c2ccccc21` (stereo partly drawn) [[3-((R)-2-Pyridin-3-yl-thiazolidine-4-carbonyl)-indol-1-yl]-acetic acid ethyl ester], 1.2 nM.
Take `COc1ccc2c(C(=O)[C@@H]3CSC(c4cccnc4)N3)c[nH]c2c1` (stereo partly drawn) [(6-Methoxy-1H-indol-3-yl)-((R)-2-pyridin-3-yl-thiazolidin-4-yl)-methanone]: the Ki worked out at 9.5 nM.
The result for `COC(=O)CCn1cc(C(=O)[C@@H]2CSC(c3cccnc3)N2)c2ccccc21` (stereo partly drawn) [3-[3-((R)-2-Pyridin-3-yl-thiazolidine-4-carbonyl)-indol-1-yl]-propionic acid methyl ester] reads 4.6 nM.
With `CN(C)C(=O)n1cc(C(=O)[C@@H]2CSC(c3cccnc3)N2)c2ccc(-c3ccc(F)cc3)cc21` (stereo partly drawn) [6-(4-Fluoro-phenyl)-3-((R)-2-pyridin-3-yl-thiazolidine-4-carbonyl)-indole-1-carboxylic acid dimethylamide], the Ki amounted to 9.2 nM.
In the case of `O=C(c1c[nH]c2cccc(OCc3ccccc3)c12)[C@@H]1CSC(c2cccnc2)N1` (stereo partly drawn) [(4-Benzyloxy-1H-indol-3-yl)-((R)-2-pyridin-3-yl-thiazolidin-4-yl)-methanone] it was 13 nM.
The molecule `O=C(c1c[nH]c2cc(Oc3ccc(F)cc3)ccc12)[C@@H]1CSC(c2cccnc2)N1` (stereo partly drawn) [[6-(4-Fluoro-phenoxy)-1H-indol-3-yl]-((R)-2-pyridin-3-yl-thiazolidin-4-yl)-methanone] gave a Ki of 1.9 nM.
The result for `CN(C)C(=O)n1cc(C(=O)[C@@H]2CSC(c3cccnc3)N2)c2ccc(-c3ccccc3)cc21` (stereo partly drawn) [6-Phenyl-3-((R)-2-pyridin-3-yl-thiazolidine-4-carbonyl)-indole-1-carboxylic acid dimethylamide] reads 3.6 nM; that for `CN(C)C(=O)n1cc(C(=O)[C@@H]2CSC(c3cccnc3)N2)c2ccc(C(=O)c3ccccc3)cc21` (stereo partly drawn) [6-Benzoyl-3-((R)-2-pyridin-3-yl-thiazolidine-4-carbonyl)-indole-1-carboxylic acid dimethylamide], 1 nM; that for `O=C(Nc1cccc(Cl)c1)[C@@H]1CSC(c2cccnc2)N1` (stereo partly drawn) [(R)-2-Pyridin-3-yl-thiazolidine-4-carboxylic acid (3-chloro-phenyl)-amide], 208 nM.
Turning to `O=C(c1cn(Cc2ccccc2)c2ccccc12)[C@@H]1CSC(c2cccnc2)N1` (stereo partly drawn) [(1-Benzyl-1H-indol-3-yl)-((R)-2-pyridin-3-yl-thiazolidin-4-yl)-methanone], the Ki was determined as 49 nM.
In the case of `CNC(=O)Cn1cc(C(=O)[C@@H]2CSC(c3cccnc3)N2)c2ccccc21` (stereo partly drawn) [N-Methyl-2-[3-((R)-2-pyridin-3-yl-thiazolidine-4-carbonyl)-indol-1-yl]-acetamide] it was 2.4 nM; in that of `O=C(c1c[nH]c2cc(F)ccc12)[C@@H]1CSC(c2cccnc2)N1` (stereo partly drawn) [(6-Fluoro-1H-indol-3-yl)-((R)-2-pyridin-3-yl-thiazolidin-4-yl)-methanone], 5.6 nM; in that of `Cc1ccc2c(C(=O)[C@@H]3CSC(c4cccnc4)N3)cn(C(=O)OC(C)(C)C)c2c1` (stereo partly drawn) [6-Methyl-3-((R)-2-pyridin-3-yl-thiazolidine-4-carbonyl)-indole-1-carboxylic acid tert-butyl ester], 2.6 nM.
`O=C(c1c[nH]c2cc(OCc3ccc(F)cc3)ccc12)[C@@H]1CSC(c2cccnc2)N1` (stereo partly drawn) [[6-(4-Fluoro-benzyloxy)-1H-indol-3-yl]-((R)-2-pyridin-3-yl-thiazolidin-4-yl)-methanone] had a Ki of 1.6 nM.
In the case of `CCS(=O)(=O)n1cc(C(=O)[C@@H]2CSC(c3cccnc3)N2)c2ccccc21` (stereo partly drawn) [(1-Ethanesulfonyl-1H-indol-3-yl)-((R)-2-pyridin-3-yl-thiazolidin-4-yl)-methanone] it was 18 nM; in that of `NC(=O)Cn1cc(C(=O)[C@@H]2CSC(c3cccnc3)N2)c2ccccc21` (stereo partly drawn) [2-[3-((R)-2-Pyridin-3-yl-thiazolidine-4-carbonyl)-indol-1-yl]-acetamide], 5 nM; in that of `CN(C)C(=O)n1cc(C(=O)[C@@H]2CSC(c3cccnc3)N2)c2ccc(-c3cccnc3)cc21` (stereo partly drawn) [6-Pyridin-3-yl-3-((R)-2-pyridin-3-yl-thiazolidine-4-carbonyl)-indole-1-carboxylic acid dimethylamide], 40 nM.
In the case of `O=C(c1c[nH]c2cc(-c3ccccc3)ccc12)[C@@H]1CSC(c2cccnc2)N1` (stereo partly drawn) [(6-Phenyl-1H-indol-3-yl)-((R)-2-pyridin-3-yl-thiazolidin-4-yl)-methanone] it was 14 nM.
In the case of `O=C(c1cn(CC(F)(F)F)c2ccccc12)[C@@H]1CSC(c2cccnc2)N1` (stereo partly drawn) [((R)-2-Pyridin-3-yl-thiazolidin-4-yl)-[1-(2,2,2-trifluoro-ethyl)-1H-indol-3-yl]-methanone] it was 21 nM; in that of `O=C(c1c[nH]c2c(OCc3ccccc3)cccc12)[C@@H]1CSC(c2cccnc2)N1` (stereo partly drawn) [(7-Benzyloxy-1H-indol-3-yl)-((R)-2-pyridin-3-yl-thiazolidin-4-yl)-methanone; TFA], 1.1 nM.
On to `Cc1[nH]c2ccccc2c1C(=O)[C@@H]1CSC(c2cccnc2)N1` (stereo partly drawn) [(2-Methyl-1H-indol-3-yl)-((R)-2-pyridin-3-yl-thiazolidin-4-yl)-methanone], for which the affinity, expressed as Ki, was 23 nM.
The result for `O=C(c1cn(C(=O)OCc2ccccc2)c2ccccc12)[C@@H]1CSC(c2cccnc2)N1` (stereo partly drawn) [3-((R)-2-Pyridin-3-yl-thiazolidine-4-carbonyl)-indole-1-carboxylic acid benzyl ester; compound with oxalic acid] reads 3 nM; that for `CC(C)(C)C(=O)n1cc(C(=O)[C@@H]2CSC(c3cccnc3)N2)c2ccccc21` (stereo partly drawn) [2,2-Dimethyl-1-[3-((R)-2-pyridin-3-yl-thiazolidine-4-carbonyl)-indol-1-yl]-propan-1-one], 8.8 nM; that for `Cc1c(C(=O)[C@@H]2CSC(c3cccnc3)N2)c2ccccc2n1C(=O)OC(C)(C)C` (stereo partly drawn) [2-Methyl-3-((R)-2-pyridin-3-yl-thiazolidine-4-carbonyl)-indole-1-carboxylic acid tert-butyl ester; compound with oxalic acid], 9.5 nM.
Take `O=C(c1c[nH]c2ccccc12)[C@@H]1CSC(c2cccnc2)N1` (stereo partly drawn) [(1H-Indol-3-yl)-((R)-2-pyridin-3-yl-thiazolidin-4-yl)-methanone; compound with oxalic acid]: affinity was put at a Ki of 3.4 nM.
The result for `COc1ccc2c(C(=O)[C@@H]3CSC(c4cccnc4)N3)cn(C(=O)OC(C)(C)C)c2c1` (stereo partly drawn) [6-Methoxy-3-((R)-2-pyridin-3-yl-thiazolidine-4-carbonyl)-indole-1-carboxylic acid tert-butyl ester; compound with oxalic acid] reads 8.2 nM; that for `O=C(C1CSC(c2cccnc2)N1)n1ccc2cc(OCc3ccccc3)ccc21` (centres undefined) [(5-Benzyloxy-indol-1-yl)-(2-pyridin-3-yl-thiazolidin-4-yl)-methanone], 15 nM; that for `CN(C)C(=O)n1cc(C(=O)[C@@H]2CSC(c3cccnc3)N2)c2ccc(Oc3ccc(F)cc3)cc21` (stereo partly drawn) [6-(4-Fluoro-phenoxy)-3-((R)-2-pyridin-3-yl-thiazolidine-4-carbonyl)-indole-1-carboxylic acid dimethylamide], 2.2 nM.
